Measured values: publication PMC4286194 (Biochemical Journal, 2015)
Where two headings read alike, the source gives them in different places.

How the values were obtained:
p38 alpha MAPK = p38 alpha MAPK (Homo sapiens, UniProt Q16539); assay: Kinase profiling; format: biochemical
PLK1 = PLK1 (Homo sapiens, UniProt P53350); assay: Kinase profiling; format: biochemical
ZAP70 = biological target: T1, ZAP70 (Homo sapiens, UniProt P43403); assay: Kinase profiling; format: biochemical
T1 sequence (P43403 1-619): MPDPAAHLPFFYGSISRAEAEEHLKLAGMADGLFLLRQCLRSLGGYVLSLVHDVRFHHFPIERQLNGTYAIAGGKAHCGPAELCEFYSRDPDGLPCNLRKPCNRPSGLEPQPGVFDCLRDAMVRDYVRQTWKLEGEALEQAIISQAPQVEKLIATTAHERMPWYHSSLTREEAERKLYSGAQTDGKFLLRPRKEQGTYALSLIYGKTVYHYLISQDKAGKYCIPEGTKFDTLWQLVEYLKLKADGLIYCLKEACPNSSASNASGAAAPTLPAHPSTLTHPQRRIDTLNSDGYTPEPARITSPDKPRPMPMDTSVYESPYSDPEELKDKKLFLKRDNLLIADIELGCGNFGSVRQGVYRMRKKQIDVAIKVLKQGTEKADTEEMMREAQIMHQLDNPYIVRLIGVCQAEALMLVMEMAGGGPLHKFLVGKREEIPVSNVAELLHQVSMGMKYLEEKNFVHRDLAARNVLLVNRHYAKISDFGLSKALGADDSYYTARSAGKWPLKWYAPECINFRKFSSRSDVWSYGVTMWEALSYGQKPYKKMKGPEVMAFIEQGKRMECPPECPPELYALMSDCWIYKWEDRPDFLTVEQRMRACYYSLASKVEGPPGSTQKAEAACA

IRAK1 = IRAK1 (Homo sapiens, UniProt P51617); assay: Kinase profiling; format: biochemical
SIK2[T96Q] = biological target: T2, SIK2[T96Q] (Homo sapiens, UniProt Q9H0K1, T96Q); format: biochemical; conditions: gatekeeper threonine mutated to glutamine
T2 construct: GST; made in house; host or cells: HEK293 cells

SIK2 = SIK2 (Homo sapiens, UniProt Q9H0K1); assay: Kinase profiling; format: biochemical
Sequence of SIK2 (Q9H0K1 whole entry): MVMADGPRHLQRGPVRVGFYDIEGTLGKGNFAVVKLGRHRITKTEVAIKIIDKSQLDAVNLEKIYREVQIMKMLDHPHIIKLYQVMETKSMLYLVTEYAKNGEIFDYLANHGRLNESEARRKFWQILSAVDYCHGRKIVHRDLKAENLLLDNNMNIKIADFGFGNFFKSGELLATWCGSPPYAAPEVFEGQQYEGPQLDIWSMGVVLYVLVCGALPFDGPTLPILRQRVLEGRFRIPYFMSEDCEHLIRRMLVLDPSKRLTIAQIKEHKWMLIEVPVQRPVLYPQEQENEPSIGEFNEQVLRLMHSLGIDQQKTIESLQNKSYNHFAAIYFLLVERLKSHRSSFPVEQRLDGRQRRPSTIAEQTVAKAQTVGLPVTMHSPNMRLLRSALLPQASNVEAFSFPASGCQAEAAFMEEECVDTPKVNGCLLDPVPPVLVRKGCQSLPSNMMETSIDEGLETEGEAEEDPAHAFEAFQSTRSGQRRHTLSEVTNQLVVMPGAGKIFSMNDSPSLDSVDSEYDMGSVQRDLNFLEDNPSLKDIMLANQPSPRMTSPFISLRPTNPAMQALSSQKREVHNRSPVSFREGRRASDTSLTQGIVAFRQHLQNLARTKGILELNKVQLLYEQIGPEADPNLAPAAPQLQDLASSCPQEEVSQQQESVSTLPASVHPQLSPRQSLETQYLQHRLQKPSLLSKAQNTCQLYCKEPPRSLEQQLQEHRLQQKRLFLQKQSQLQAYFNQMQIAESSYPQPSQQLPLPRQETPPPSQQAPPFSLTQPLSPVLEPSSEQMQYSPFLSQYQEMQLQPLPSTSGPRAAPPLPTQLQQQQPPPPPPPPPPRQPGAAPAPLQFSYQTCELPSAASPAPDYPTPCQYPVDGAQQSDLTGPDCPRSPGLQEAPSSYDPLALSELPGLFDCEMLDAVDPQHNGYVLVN

CLK2 = CLK2 (Homo sapiens, UniProt P49760); assay: Kinase profiling; format: biochemical
Sequence of CLK2 (P49760 whole entry): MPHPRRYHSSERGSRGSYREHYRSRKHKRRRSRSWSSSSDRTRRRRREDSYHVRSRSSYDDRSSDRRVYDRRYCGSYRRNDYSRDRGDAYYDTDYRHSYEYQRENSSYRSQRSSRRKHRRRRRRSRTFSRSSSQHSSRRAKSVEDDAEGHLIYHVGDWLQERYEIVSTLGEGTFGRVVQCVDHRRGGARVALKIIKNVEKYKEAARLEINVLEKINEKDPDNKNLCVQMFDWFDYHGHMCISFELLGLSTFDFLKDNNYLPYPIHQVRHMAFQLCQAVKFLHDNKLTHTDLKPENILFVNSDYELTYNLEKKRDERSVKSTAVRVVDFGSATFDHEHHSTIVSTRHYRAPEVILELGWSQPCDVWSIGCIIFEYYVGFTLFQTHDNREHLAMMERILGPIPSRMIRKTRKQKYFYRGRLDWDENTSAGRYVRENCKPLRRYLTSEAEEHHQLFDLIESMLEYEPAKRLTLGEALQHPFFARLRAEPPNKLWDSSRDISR

PDK1 = biological target: T3, PDK1 (Homo sapiens, UniProt O15530); assay: Kinase profiling; format: biochemical
T3 sequence (O15530 1-556): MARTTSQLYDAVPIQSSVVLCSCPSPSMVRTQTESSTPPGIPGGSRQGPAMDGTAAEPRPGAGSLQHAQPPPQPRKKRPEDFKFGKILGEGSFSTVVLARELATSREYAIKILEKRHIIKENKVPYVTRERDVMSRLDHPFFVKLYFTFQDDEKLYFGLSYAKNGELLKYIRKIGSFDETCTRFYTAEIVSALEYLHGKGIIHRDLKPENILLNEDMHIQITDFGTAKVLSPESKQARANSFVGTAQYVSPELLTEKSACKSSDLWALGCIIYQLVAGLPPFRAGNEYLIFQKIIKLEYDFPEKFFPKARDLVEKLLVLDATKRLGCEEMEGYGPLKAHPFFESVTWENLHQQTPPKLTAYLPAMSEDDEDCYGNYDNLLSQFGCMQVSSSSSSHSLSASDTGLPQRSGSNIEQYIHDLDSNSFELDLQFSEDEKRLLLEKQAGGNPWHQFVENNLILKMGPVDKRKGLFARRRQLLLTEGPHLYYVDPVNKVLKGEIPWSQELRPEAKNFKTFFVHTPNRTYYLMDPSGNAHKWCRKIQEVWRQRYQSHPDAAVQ

[1] = tested on: Bone-marrow-derived macrophages; assay: Markers of 'regulatory' macrophages (qPCR); format: cell-based, mouse; conditions: 3 μM bosutinib or 0.3 μM dasatinib 1 h, then LPS
Protocol: (§1) mRNA was extracted from cells using the MicroElute Total RNA kit following the manufacturers’ instructions (Omega Bio-Tek). cDNA was generated from 0.5 μg of total RNA using the iScript cDNA synthesis kit and quantified by quantitative real-time PCR (qPCR) using the SsoFast EvaGreen Supermix on a CFX384 real-time system (Bio-Rad Laboratories). The relative expression of each gene was calculated from CT values using the Pfaffl method and was normalized against the mRNA levels of housekeeping genes including 18S RNA and GAPDH. Results are reported relative to untreated control cells, which were set to 1.

MAPKAP-K3 = MAPKAP-K3 (Homo sapiens, UniProt Q16644); assay: Kinase profiling; format: biochemical
Sequence of MAPKAP-K3 (Q16644 whole entry): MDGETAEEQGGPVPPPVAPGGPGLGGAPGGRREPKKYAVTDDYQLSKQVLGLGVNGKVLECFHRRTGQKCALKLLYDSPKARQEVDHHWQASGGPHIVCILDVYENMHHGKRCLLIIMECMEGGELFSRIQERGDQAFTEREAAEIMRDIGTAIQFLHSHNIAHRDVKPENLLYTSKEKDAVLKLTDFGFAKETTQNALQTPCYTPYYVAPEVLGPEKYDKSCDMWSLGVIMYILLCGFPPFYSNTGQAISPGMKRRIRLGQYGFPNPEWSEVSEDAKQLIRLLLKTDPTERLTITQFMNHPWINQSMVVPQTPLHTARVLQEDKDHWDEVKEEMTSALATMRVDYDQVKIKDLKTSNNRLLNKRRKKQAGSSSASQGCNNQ

HIPK1 = HIPK1 (Homo sapiens, UniProt Q86Z02); assay: Kinase profiling; format: biochemical
Sequence of HIPK1 (Q86Z02 whole entry): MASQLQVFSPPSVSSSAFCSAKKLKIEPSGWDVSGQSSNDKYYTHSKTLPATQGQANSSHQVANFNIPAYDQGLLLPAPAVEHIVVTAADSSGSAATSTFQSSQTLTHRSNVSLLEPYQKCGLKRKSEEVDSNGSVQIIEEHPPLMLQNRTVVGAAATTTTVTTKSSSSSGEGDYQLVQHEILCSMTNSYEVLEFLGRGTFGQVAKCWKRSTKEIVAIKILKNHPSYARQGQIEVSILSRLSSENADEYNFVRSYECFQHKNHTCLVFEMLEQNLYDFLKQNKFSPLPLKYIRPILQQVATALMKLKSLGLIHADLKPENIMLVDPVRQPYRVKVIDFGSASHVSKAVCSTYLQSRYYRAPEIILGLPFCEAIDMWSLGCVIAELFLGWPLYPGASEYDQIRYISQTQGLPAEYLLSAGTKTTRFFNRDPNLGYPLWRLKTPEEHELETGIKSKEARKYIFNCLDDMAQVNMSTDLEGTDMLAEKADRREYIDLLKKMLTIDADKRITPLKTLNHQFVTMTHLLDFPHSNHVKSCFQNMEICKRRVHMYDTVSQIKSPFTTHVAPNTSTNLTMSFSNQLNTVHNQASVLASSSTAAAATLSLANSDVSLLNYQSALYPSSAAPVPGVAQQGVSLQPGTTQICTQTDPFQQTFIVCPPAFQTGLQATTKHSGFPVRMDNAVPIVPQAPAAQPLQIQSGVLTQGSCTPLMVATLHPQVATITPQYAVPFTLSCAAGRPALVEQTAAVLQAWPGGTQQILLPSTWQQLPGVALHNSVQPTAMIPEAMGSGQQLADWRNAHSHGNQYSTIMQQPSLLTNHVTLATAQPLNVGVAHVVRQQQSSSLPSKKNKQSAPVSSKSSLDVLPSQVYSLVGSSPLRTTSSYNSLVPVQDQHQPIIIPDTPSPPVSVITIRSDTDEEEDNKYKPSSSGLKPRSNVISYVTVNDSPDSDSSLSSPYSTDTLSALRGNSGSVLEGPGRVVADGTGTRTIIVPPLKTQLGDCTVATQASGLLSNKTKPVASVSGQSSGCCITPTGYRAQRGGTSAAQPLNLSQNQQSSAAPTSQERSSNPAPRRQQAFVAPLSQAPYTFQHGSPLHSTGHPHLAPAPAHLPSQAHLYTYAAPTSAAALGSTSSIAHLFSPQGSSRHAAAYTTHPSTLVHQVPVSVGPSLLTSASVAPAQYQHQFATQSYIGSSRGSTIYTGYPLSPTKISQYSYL

MPSK1 = MPSK1 (Homo sapiens, UniProt O75716); assay: Kinase profiling; format: biochemical
Sequence of MPSK1 (O75716 whole entry): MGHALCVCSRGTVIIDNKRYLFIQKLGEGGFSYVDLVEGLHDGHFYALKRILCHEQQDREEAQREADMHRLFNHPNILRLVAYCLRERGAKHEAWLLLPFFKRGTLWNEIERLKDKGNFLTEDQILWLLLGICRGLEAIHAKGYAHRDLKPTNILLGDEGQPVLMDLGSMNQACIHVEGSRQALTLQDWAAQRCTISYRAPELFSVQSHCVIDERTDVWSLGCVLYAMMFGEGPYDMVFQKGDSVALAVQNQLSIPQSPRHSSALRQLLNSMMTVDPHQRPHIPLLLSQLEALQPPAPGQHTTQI

[2] = tested on: Bone-marrow-derived macrophages; assay: IL-10 mRNA (qPCR) in LPS-stimulated macrophages; format: cell-based; conditions: Mus musculus, Macrophage, read-out: EC50 for elevation of IL-10 mRNA
Protocol: Primary macrophages were generated by differentiating bone marrow from 6- to 12-week-old C57BL/6 mice for 7 days in Dulbecco's modified Eagle's medium (DMEM) supplemented with 5 ng/ml recombinant M-CSF (R&D systems), 2 mM glutamine, 10% FBS, penicillin and streptomycin. Bone-marrow-derived macrophages were differentiated on non-tissue-culture-treated plastic, harvested and replated at a density of 100000 cells/cm^2 per 0.1 ml on tissue culture-treated plastic in fresh medium before stimulation on day 8. RAW264.7 cells were cultured in DMEM containing 10% FBS, 2 mM glutamine and penicillin and streptomycin. […] Cells were treated for 1 h with or without inhibitors and then stimulated for up to 24 h with either 1 μg/ml Pam3CSK4 or 100 ng/ml LPS.
as §1, with “GAPDH.” for “GAPDH. Results are reported relative to untreated control cells, which were set to 1.”

TrkA = TrkA (Homo sapiens, UniProt P04629); assay: Kinase profiling; format: biochemical
Sequence of TrkA (P04629 33-796): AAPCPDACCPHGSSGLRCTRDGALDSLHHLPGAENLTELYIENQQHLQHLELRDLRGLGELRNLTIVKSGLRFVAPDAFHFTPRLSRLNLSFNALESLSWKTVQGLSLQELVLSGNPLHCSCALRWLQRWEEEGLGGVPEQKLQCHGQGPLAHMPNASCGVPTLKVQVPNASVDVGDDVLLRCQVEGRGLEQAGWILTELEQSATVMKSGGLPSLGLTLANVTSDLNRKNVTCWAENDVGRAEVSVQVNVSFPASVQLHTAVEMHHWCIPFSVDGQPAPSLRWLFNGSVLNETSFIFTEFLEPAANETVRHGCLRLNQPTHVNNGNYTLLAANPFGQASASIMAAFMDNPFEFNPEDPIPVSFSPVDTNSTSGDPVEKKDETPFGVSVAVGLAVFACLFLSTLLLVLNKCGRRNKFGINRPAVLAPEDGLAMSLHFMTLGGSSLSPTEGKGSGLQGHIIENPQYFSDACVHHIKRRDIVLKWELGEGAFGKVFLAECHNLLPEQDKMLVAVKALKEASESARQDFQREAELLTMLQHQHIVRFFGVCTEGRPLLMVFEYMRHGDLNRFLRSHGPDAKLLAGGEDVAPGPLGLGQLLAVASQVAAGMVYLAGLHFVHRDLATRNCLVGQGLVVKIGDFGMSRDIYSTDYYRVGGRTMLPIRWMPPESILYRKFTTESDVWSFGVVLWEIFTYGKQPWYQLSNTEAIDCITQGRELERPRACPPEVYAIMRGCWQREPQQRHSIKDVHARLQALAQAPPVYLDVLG

Sequence of PLK1 (P53350 whole entry): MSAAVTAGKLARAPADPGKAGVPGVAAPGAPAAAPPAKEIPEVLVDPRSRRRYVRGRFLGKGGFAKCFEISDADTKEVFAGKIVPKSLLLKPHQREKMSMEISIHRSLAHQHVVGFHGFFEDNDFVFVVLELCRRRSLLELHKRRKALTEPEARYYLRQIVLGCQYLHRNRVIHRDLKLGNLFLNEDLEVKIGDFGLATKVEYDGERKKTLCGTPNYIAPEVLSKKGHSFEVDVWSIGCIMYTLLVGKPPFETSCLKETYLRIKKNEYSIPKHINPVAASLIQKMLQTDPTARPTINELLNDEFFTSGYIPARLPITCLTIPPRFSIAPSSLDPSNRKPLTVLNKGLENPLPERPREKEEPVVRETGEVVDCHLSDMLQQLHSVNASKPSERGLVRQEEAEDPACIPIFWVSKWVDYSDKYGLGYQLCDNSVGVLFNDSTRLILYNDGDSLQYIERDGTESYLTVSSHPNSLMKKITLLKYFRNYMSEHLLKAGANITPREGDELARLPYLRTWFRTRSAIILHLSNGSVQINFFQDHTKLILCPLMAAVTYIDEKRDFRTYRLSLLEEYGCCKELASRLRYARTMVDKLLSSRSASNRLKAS
Sequence of p38 alpha MAPK (Q16539 whole entry): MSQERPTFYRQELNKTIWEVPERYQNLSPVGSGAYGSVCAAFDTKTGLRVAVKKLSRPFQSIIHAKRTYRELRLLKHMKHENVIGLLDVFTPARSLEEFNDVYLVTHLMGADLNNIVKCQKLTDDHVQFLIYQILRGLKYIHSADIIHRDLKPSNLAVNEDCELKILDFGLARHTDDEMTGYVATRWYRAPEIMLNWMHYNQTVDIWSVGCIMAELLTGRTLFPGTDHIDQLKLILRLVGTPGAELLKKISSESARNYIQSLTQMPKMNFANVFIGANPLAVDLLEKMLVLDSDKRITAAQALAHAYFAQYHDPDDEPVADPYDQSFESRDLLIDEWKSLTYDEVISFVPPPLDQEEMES

Compound | remaining activity at 0.1 µM (p38 alpha MAPK) | remaining activity at 1 µM (p38 alpha MAPK) | remaining activity at 0.1 µM (PLK1) | remaining activity at 0.1 µM (ZAP70) | remaining activity at 1 µM (ZAP70) | remaining activity at 0.1 µM (IRAK1) | remaining activity at 1 µM (IRAK1) | Loss of sensitivity of SIK2[T96Q] versus wild-type (SIK2[T96Q]) | remaining activity at 0.1 µM (SIK2) | remaining activity at 1 µM (SIK2) | remaining activity at 0.1 µM (CLK2) | remaining activity at 1 µM (CLK2) | remaining activity at 0.1 µM (PDK1) | remaining activity at 1 µM (PDK1) | Expression of SPHK1, LIGHT and arginase 1 [1] | remaining activity at 0.1 µM (MAPKAP-K3) | remaining activity at 1 µM (MAPKAP-K3) | remaining activity at 0.1 µM (HIPK1) | remaining activity at 1 µM (HIPK1) | remaining activity at 0.1 µM (MPSK1) | further results
COc1cc(Nc2c(C#N)cnc3cc(OCCCN4CCN(C)CC4)c(OC)cc23)c(Cl)cc1Cl [Bosutinib, bosutinib] | 97 ± 4% | 72 ± 3% | 97 ± 12% | 99 ± 4% | 109 ± 18% | 77 ± 3% | 65% | 100–1000 fold | 8% | 3% | 75 ± 9% | 23% | 92 ± 16% | 98% | elevated | 113 ± 1% | 103 ± 8% | 95% | 57% | 117 ± 15% | remaining activity at 1 µM (PLK1; 1 µM): 74 ± 6%; remaining activity at 1 µM (MPSK1): 110 ± 11%; EC50 ([2]; drug 1 h, then LPS 1 h, qPCR, n=4): 320 nM; remaining activity at 0.1 µM (TrkA): 25 ± 2%; remaining activity at 1 µM (TrkA): 7%
Cc1nc(Nc2ncc(C(=O)Nc3c(C)cccc3Cl)s2)cc(N2CCN(CCO)CC2)n1 [Dasatinib] | 79 ± 15% | 29 ± 2% | 133 ± 18% | 109 ± 1% | 121 ± 27% | 96 ± 1% | 108 ± 3% | 100–1000 fold | 4 ± 1% | 2 ± 1% | 120 ± 6% | 121 ± 6% | 94 ± 9% | 92 ± 1% | elevated | 117 ± 3% | 132 ± 1% | 105 ± 4% | 122 ± 6% | 101 ± 5% | remaining activity at 1 µM (MPSK1): 123 ± 1%; EC50 ([2]; 1 h): 100 nM; remaining activity at 0.1 µM (TrkA): 107 ± 11%; remaining activity at 1 µM (TrkA): 88 ± 2%
